Series [1] is described as follows: β-carotene method: de-coloration of beta-carotene by oxygen and oxidative intermediates of linoleic acid (OD470 nm). From the text: (§1) The following five methods were used to evaluate compounds in accordance with the present invention. […] Note: both MDA and 4-HNE are the oxidation products of polyunsaturated fatty acids from lipids. • 3. β-carotene method was used to measure the protection of β-carotene oxidation by lipid peroxide in the presence of an added anti-oxidant. • 4. DPPH (1,1-diphenyl-2-picrylhydrazyl) method was used to measure the radical scavenging activity of an anti-oxidant towards the radical DPPH. • 5. polyphenol oxidase (PPO) method was used to measure the inhibition of polyphenol oxidase in vegetables, fruits and mushrooms.
Principle and Goal: Carotenes are one of the pigments which may be used to give a healthy colour to food or drinks. They are therefore used as food colorant. β-Carotene is also the precursor for vitamin A. Carotenoid molecules are highly unsaturated and are prone to oxidative degradation; which is stimulated by light, enzymes, metals, and co-oxidation with lipid hydroperoxides.
In the system used, beta-carotene was exposed to oxygen and the oxidative intermediates of linoleic acid.
The assay was performed according to H. E. Miller (JAOSC (1970) 48: 91). The assay system consisted of beta-carotene, linoleic acid, and Tween 40. In the blank, no anti-oxidant was added, while in the tests, either APP in a concentration of 2.5-25 ppm or sodium ascorbate in a concentration of 100-500 ppm was added. The mixtures were incubated in the dark for the time and temperature indicated (see Table 2.1 and 2.2). The absorbance was then measured at 470 nm. The absorbance provided an indication of beta-carotene content. Lower OD470 nm values indicate more degradation of beta-carotene.

Series [2] in a line: LPO method: MDA and 4HNE from oxidation of linoleic acid (OD586 nm). The note with it: for OD586 nm of the APP test / OD586 nm of the ascorbate test: 24° C. in the dark for 10 days.
From the text: as §1
Principle and Goal: A major area for use of antioxidants in food-related products are their ability to prevent the oxidation of polyunsaturated fatty acids in lipids. The oxidation of lipids and fatty acids is a major problem in food.
Assay Conditions: The assay of MDA and 4HNE was performed by the LPO method, using the assay kit from OXIS International, Inc. (Portland, Oreg., USA) and according to their protocol. The assay mixture for the blank contained linoleic acid and Tween 40. For the tests, APP or sodium ascorbate was added. After incubation at 24° C. in the dark for 10 days, the samples were assayed for MDA and 4HNE contents as indicated by their absorbance at 586 nm as given in Table 3. Higher OD586 nm values indicate higher content of MDA and 4HNE, and therefore more degradation of linoleic acid.

For series [3] the following is noted: disclosed tests of reference [3]; cited from earlier work.
The test system of series [4] is mushroom polyphenol oxidase (PPO). Nature of the series: Polyphenol oxidase (PPO) inhibition, tyrosine substrate, absorbance at 475 nm. It counts as biochemical. As to conditions: for OD475 nm (browning product formation): 10 ppm APP, 24° C., pH 6.5. Here is the method: Principle and Goal: PPO is one of the enzymes involved in oxidative browning of vegetables and fruits. […] Blank: To 20 μl PPO (20 units, from mushroom. Sigma product. EC 1.14.18.1) was added 0.45 ml water, 0.43 ml phosphate buffer (0.2M Na2HPO4—NaH2PO4, pH6.5), so the final volume was 0.9 ml Control: To 20 μl PPO was added 0.15 ml water, 0.43 ml phosphate buffer (0.2M Na2HPO4—NaH2PO4, pH6.5), then 0.3 ml tyrosine (1 mM, BDH product). Time course progress of the reaction was monitored at room temperature (24° C.) at 475 nm by using a Perkin Elmer UV/VIS Lambda 18 spectrophotometer. Test: To 20 μl PPO was added 0.143 ml water, 7 μl APP (final 10 ppm), 0.430 ml phosphate buffer (0.2M Na2HPO4—NaH2PO4, pH6.5), then 0.3 ml tyrosine (1 mM, BDH product). Time course progress of the reaction was monitored as above. Table 1. Inhibition of 10 ppm APP on polyphenol oxidase (PPO) as indicated by very slow increase at absorbance 475nm compared to control. Higher values at OD475 nm indicate more browning product formation.

In another series the test system is apple slices. Nature of the series: Browning of apple slices (Example 1, FIG. 2). As to conditions: prolonged period, weeks or months, at room temperature. From the text: Compounds of the present invention were investigated as an anti-browning agent in vegetable and fruit products.

Structures are written as SMILES.

As for `O=C1C(O)=COC(CO)C1O` [APP, 1,5-Anhydro-D-glycero-hex-1-en-3-ulose], the “Effect on oxidative de-coloration of beta-carotene (in words)” value in series [1] is “delayed the oxidative de-coloration of beta-carotene”. Also, the “The OD470 nm of the APP test” value in series [1] (2.5 ppm, 37° C. for 161 min in the dark, lower OD = more degradation) stood at 0.264; in series [1] (6.2 ppm, 37° C. for 161 min in the dark), 0.314; in series [1] (12.5 ppm, 37° C. for 161 min in the dark), 0.322; in series [1] (25 ppm, 37° C. for 161 min in the dark), 0.326. For the same compound, the “The OD470 nm of the APP tests” value in series [1] (2.5 ppm, 37° C. for 161 min then 24° C. for 17.5 hours in the dark) came out at 0.173; in series [1] (6.2 ppm, 37° C. for 161 min then 24° C. for 17.5 hours in the dark), 0.270; in series [1] (12.5 ppm, 37° C. for 161 min then 24° C. for 17.5 hours in the dark) it was 0.274; in series [1] (25 ppm, 37° C. for 161 min then 24° C. for 17.5 hours in the dark), 0.263. Moreover, in series [1] (FIG. 4), the “Effectiveness relative to ascorbic acid in preventing the de-coloration of β-carotene” value is given as “around 100 times”. Further, the “Effect on oxidation of linoleic acid (in words)” value in series [2] was “able to delay the oxidation of linoleic acid”. In addition, the “OD586 nm of the APP test” value is listed as 0.358 in series [2] (2.5 ppm, higher OD = more MDA and 4HNE); 0.100 in series [2] (6.2 ppm); 0.084 in series [2] (12.5 ppm). The “Efficiency in delaying the oxidative degradation of linoleic acid compared with ascorbic acid” value in series [2] (6.2 ppm APP, FIG. 5) was “almost as efficient as 300 ppm ascorbic acid”. The “Function as an antibiotic” value in series [3] is “did not function satisfactorily as an antibiotic”. Besides, the “Inhibition of PPO (in words)” value in series [4] is “efficient inhibitor”. Besides, the “OD475 nm (browning product formation)” value in series [4] (reaction time 0 min) was 0; in series [4] (reaction time 1 min), 0; in series [4] (reaction time 3 min) it was 0; in series [4] (reaction time 5 min), 0; in series [4] (reaction time 7 min), 0.0005; in series [4] (reaction time 9 min), 0.0017. The “OD475 nm (browning product formation)” value in series [4] (reaction time 11 min) was determined as 0.0033; in series [4] (reaction time 13 min) it was 0.0056; in series [4] (reaction time 15 min), 0.0082; in series [4] (reaction time 17 min), 0.0122; in series [4] (reaction time 19 min) it was 0.0178; in series [4] (reaction time 20 min), 0.0209.

On to `O=C1O[C@H]([C@@H](O)CO)C(O)=C1O` [ascorbic acid, reference compound], for which the “Prevention of browning of apple slices” value in the series with apple slices is on record as “unable to do so”.

Regarding `O=c1cc(CO)occ1O` [kojic acid], the “Prevention of browning of apple slices” value in the series with apple slices is reported as “completely prevent browning”. Also, the “Inhibition of PPO (in words)” value in series [4] was “inhibited”.

For the compound `O=C1O[C@H]([C@@H](O)CO)C([O-])=C1O.[Na+]` [Sodium ascorbate, sodium ascorbate, reference compound], the “The OD470 nm of the ascorbate test” value in series [1] (100 ppm, 37° C. for 161 min in the dark) was −0.01; in series [1] (100 ppm, 37° C. for 161 min then 24° C. for 17.5 hours in the dark), −0.006; in series [1] (300 ppm, 37° C. for 161 min in the dark), 0.096; in series [1] (300 ppm, 37° C. for 161 min then 24° C. for 17.5 hours in the dark) it was 0.102; in series [1] (500 ppm, 37° C. for 161 min in the dark), 0.191; in series [1] (500 ppm, 37° C. for 161 min then 24° C. for 17.5 hours in the dark), 0.200. Further, the “OD586 nm of the ascorbate test” value in series [2] (100 ppm) is 0.279; in series [2] (300 ppm), 0.097; in series [2] (500 ppm) it was 0.032.
